Some test systems named below: MOLT-4 leukemia; MALME-3M melanoma; CAKI-1 renal; PC-3 prostate; NCI-H522 lung; IGROV1 ovarian; SW-620 colon; MDA-MB-435; HCT-15 colon; HCC-2998 colon.
Holding throughout (test): growth of human tumour cells (NCI), 48 h

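96-well plates; 48 h exposure; 5 concentrations. Endpoints by linear interpolation between flanking doses. Not reached: highest tested concentration assigned. Here, GI50 denotes the concentration required for 50% inhibition of growth. Definition used: TGI = concentration required for complete inhibition of growth.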

`CCOC(=O)c1cnc(SCc2ccc(Cl)c(Cl)c2)nc1N1CC1`: the GI50 was 3.27 µM in the assay with MOLT-4 leukemia; 3.33 µM with MALME-3M melanoma; 2.08 µM in the assay on CAKI-1 renal; 2.74 µM in the assay on PC-3 prostate; 2.23 µM with NCI-H522 lung; 2.2 µM in the assay on IGROV1 ovarian. In addition, the GI50 in the assay on SW-620 colon is 1.74 µM; in the assay with MDA-MB-435, 1.97 µM; with HCT-15 colon, 1.31 µM; in the assay with HCC-2998 colon it was 2.07 µM. The TGI amounted to 15 µM in the assay with MOLT-4 leukemia; 14.8 µM in the assay with MALME-3M melanoma; 6.98 µM in the assay on CAKI-1 renal; 15.2 µM in the assay with PC-3 prostate; 6.88 µM in the assay on NCI-H522 lung; 13.8 µM in the assay with SW-620 colon. Moreover, the TGI turned out to be 11.4 µM in the assay on MDA-MB-435, 14.4 µM in the assay on HCT-15 colon and 4.73 µM in the assay with HCC-2998 colon.
On to `COc1cc(C(=O)O)c([N+](=O)[O-])c(OC)c1OC`, for which the TGI in the assay with MOLT-4 leukemia, in the assay with MALME-3M melanoma, with CAKI-1 renal, with PC-3 prostate, with NCI-H522 lung and with IGROV1 ovarian was > 100 µM in each case. For the same compound, the TGI in the assay on SW-620 colon, in the assay on MDA-MB-435, with HCT-15 colon and with HCC-2998 colon was > 100 µM throughout.
Consider `COC(=O)[C@]12CC[C@@H](C)[C@H](C)[C@@H]1C1=CC[C@@H]3[C@@]4(C)CC(=O)[C@H](O)[C@@]5(C)COC(=C45)C[C@@]3(C)[C@]1(C)CC2`, for which the GI50 with MOLT-4 leukemia is 18.7 µM; in the assay on MALME-3M melanoma, 16.2 µM; in the assay on CAKI-1 renal, 15.6 µM; in the assay with PC-3 prostate it was 16.9 µM; with NCI-H522 lung, 19.4 µM; in the assay on IGROV1 ovarian it was 19.3 µM. Further, the GI50 with SW-620 colon is 17.5 µM; in the assay on MDA-MB-435, 17 µM; with HCT-15 colon, 18 µM; with HCC-2998 colon it was 17.7 µM. Further, the TGI in the assay with MOLT-4 leukemia stood at 39.1 µM; in the assay on MALME-3M melanoma, 30.7 µM; with CAKI-1 renal, 29.3 µM; in the assay with PC-3 prostate, 33.8 µM; with NCI-H522 lung it was 35.7 µM; with IGROV1 ovarian it was 37.6 µM. In addition, the TGI in the assay with SW-620 colon was 33.6 µM; in the assay with MDA-MB-435, 32.5 µM; with HCT-15 colon, 33.4 µM; in the assay on HCC-2998 colon, 33.1 µM.
Turning to `Nc1ccn(C=C=CCO)c(=O)n1`, the GI50 in the assay on MOLT-4 leukemia is 38.8 µM; in the assay on MALME-3M melanoma, > 1000 µM; with CAKI-1 renal it was > 1000 µM; with PC-3 prostate it was > 1000 µM; in the assay with NCI-H522 lung, > 1000 µM; in the assay with IGROV1 ovarian, > 1000 µM. In addition, the GI50 in the assay with SW-620 colon, with MDA-MB-435, in the assay on HCT-15 colon and in the assay on HCC-2998 colon was > 1000 µM in each case. For the same compound, the TGI with MOLT-4 leukemia, in the assay with MALME-3M melanoma, with CAKI-1 renal, with PC-3 prostate, in the assay with NCI-H522 lung and in the assay on IGROV1 ovarian was > 1000 µM throughout. In addition, the TGI in the assay on SW-620 colon, in the assay with MDA-MB-435, with HCT-15 colon and with HCC-2998 colon was > 1000 µM in each case.
`O=C(c1cccs1)c1c(C(F)(F)F)n([O-])c2ccc(C(F)(F)F)cc2[n+]1=O`: the GI50 is 0.174 µM with MOLT-4 leukemia; 0.552 µM in the assay with MALME-3M melanoma; 0.18 µM with CAKI-1 renal; 0.118 µM with PC-3 prostate; 0.204 µM in the assay with NCI-H522 lung; 0.132 µM in the assay on IGROV1 ovarian. In addition, the GI50 with SW-620 colon was 0.162 µM; with MDA-MB-435 it was 0.564 µM; in the assay with HCT-15 colon, 0.286 µM; in the assay with HCC-2998 colon, 0.647 µM. The TGI in the assay with MOLT-4 leukemia is 0.498 µM; with MALME-3M melanoma, 1.21 µM; with CAKI-1 renal, 0.337 µM; in the assay on PC-3 prostate it was 0.259 µM; with NCI-H522 lung it was 0.455 µM; with IGROV1 ovarian, 0.278 µM. Also, the TGI in the assay on SW-620 colon amounted to 0.325 µM; in the assay on MDA-MB-435, 1.19 µM; in the assay on HCT-15 colon, 0.73 µM; in the assay on HCC-2998 colon, 1.28 µM.
In the case of `Cn1cc(-c2ccc(=O)n(Cc3cccc(-c4ncc(OCCN5CCOCC5)cn4)c3)n2)cn1`, the GI50 in the assay on MOLT-4 leukemia was 36.4 µM; with MALME-3M melanoma, > 54.9 µM; in the assay on CAKI-1 renal, > 79.7 µM; with PC-3 prostate, 49.1 µM; in the assay on NCI-H522 lung, 74.8 µM; with IGROV1 ovarian it was > 76.6 µM. Besides, the GI50 in the assay with SW-620 colon is > 100 µM; in the assay with MDA-MB-435, 61.8 µM; in the assay with HCT-15 colon, > 100 µM; in the assay on HCC-2998 colon it was > 100 µM. The TGI in the assay on MOLT-4 leukemia, in the assay with MALME-3M melanoma, in the assay on CAKI-1 renal, with PC-3 prostate, with NCI-H522 lung and in the assay on IGROV1 ovarian was > 100 µM throughout. Besides, the TGI in the assay on SW-620 colon, in the assay on MDA-MB-435, in the assay on HCT-15 colon and in the assay with HCC-2998 colon was > 100 µM each time.
With `CCCCCCCCCCCCCCCCCCNC(=O)[C@H]1CSC(c2ccc(OC)c(F)c2)N1` (some centres undefined), the GI50 with MOLT-4 leukemia is 1.48 µM; in the assay with MALME-3M melanoma, > 26.2 µM; in the assay with CAKI-1 renal it was 3.98 µM; with PC-3 prostate, 6.09 µM; in the assay on NCI-H522 lung, > 29.4 µM; with IGROV1 ovarian it was 6.65 µM. For the same compound, the GI50 in the assay on SW-620 colon was 1.5 µM; in the assay on MDA-MB-435, 1.22 µM; in the assay with HCT-15 colon it was > 37.1 µM; in the assay on HCC-2998 colon, 1.98 µM. Further, the TGI in the assay on MOLT-4 leukemia is 9.18 µM; in the assay on MALME-3M melanoma it was > 45.5 µM; in the assay on CAKI-1 renal, 16.9 µM; in the assay on PC-3 prostate, 28.3 µM; with NCI-H522 lung it was > 51.6 µM; with IGROV1 ovarian, 29.1 µM. Further, the TGI in the assay on SW-620 colon was 5.71 µM; in the assay with MDA-MB-435, 2.91 µM; with HCT-15 colon, > 53.1 µM; with HCC-2998 colon, 7.02 µM.
Regarding `O=C1c2ccccc2-c2c1c1ccccc1c(=O)n2CCO`, the TGI in the assay on MOLT-4 leukemia was 9.36 µM; in the assay on MALME-3M melanoma, > 100 µM; with CAKI-1 renal, > 51.7 µM; with PC-3 prostate, > 100 µM; in the assay with NCI-H522 lung, > 100 µM; in the assay with IGROV1 ovarian it was > 100 µM. Further, the TGI in the assay on SW-620 colon, in the assay on MDA-MB-435, in the assay with HCT-15 colon and in the assay with HCC-2998 colon was > 100 µM throughout.

Source of the values: PubChem BioAssay (NCI).
